Legend:
Assay in all cases: relative viability (nuclei count vs DMSO), 5 days (fraction); higher = more cells survive
Seliciclib + AZD7762 = compound: CC[C@H](CO)Nc1nc(NCc2ccccc2)c2ncn(C(C)C)c2n1 [Seliciclib] + NC(=O)Nc1cc(-c2cccc(F)c2)sc1C(=O)N[C@H]1CCCNC1 [AZD7762] (partner 0.2 µM)
Procedure, shortened: (§1)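 After 5 days of treatment, lung cancer cells in 1536-well plates were fixed and stained in a single step (final 0.05% Triton X-100, 1% formaldehyde, 1 ug/ml Hoechst) and their nuclei counted on 4× images. Treatment had been applied by pin tool the day after seeding as one drug alone or as a fixed anchor-drug dose with five library-drug doses (not always all listed) in √10 steps. Relative viability is the nuclei count of treated wells divided by that of vehicle wells, and values are medians of duplicate plates.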

Seliciclib + Tozasertib = compound: CC[C@H](CO)Nc1nc(NCc2ccccc2)c2ncn(C(C)C)c2n1 [Seliciclib] + Cc1cc(Nc2cc(N3CCN(C)CC3)nc(Sc3ccc(NC(=O)C4CC4)cc3)n2)n[nH]1 [Tozasertib] (partner 0.1 µM)
Procedure, shortened: as §1

Seliciclib + Decitabine = compound: CC[C@H](CO)Nc1nc(NCc2ccccc2)c2ncn(C(C)C)c2n1 [Seliciclib] + Nc1ncn([C@H]2C[C@H](O)[C@@H](CO)O2)c(=O)n1 [Decitabine] (partner 2 µM)
Procedure, shortened: as §1

Seliciclib + Bortezomib = compound: CC[C@H](CO)Nc1nc(NCc2ccccc2)c2ncn(C(C)C)c2n1 [Seliciclib] + CC(C)C[C@H](NC(=O)[C@H](Cc1ccccc1)NC(=O)c1cnccn1)B(O)O [Bortezomib] (partner 0.002 µM)
Procedure, shortened: as §1

Cell Line	relative viability (Seliciclib + AZD7762; first compound 0.08 µM)	relative viability (Seliciclib + AZD7762; first compound 0.253 µM)	relative viability (Seliciclib + AZD7762; first compound 0.8 µM)	relative viability (Seliciclib + AZD7762; first compound 2.53 µM)	relative viability (Seliciclib + AZD7762; first compound 8 µM)	relative viability (Seliciclib + Tozasertib; first compound 0.08 µM)	relative viability (Seliciclib + Tozasertib; first compound 0.253 µM)	relative viability (Seliciclib + Tozasertib; first compound 0.8 µM)	relative viability (Seliciclib + Tozasertib; first compound 2.53 µM)	relative viability (Seliciclib + Tozasertib; first compound 8 µM)	relative viability (Seliciclib + Decitabine; first compound 0.08 µM)	relative viability (Seliciclib + Decitabine; first compound 0.253 µM)	relative viability (Seliciclib + Decitabine; first compound 0.8 µM)	relative viability (Seliciclib + Decitabine; first compound 2.53 µM)	relative viability (Seliciclib + Decitabine; first compound 8 µM)	relative viability (Seliciclib + Bortezomib; first compound 0.08 µM)	relative viability (Seliciclib + Bortezomib; first compound 0.253 µM)	relative viability (Seliciclib + Bortezomib; first compound 0.8 µM)	relative viability (Seliciclib + Bortezomib; first compound 2.53 µM)	relative viability (Seliciclib + Bortezomib; first compound 8 µM)
PC-14	0.358	0.35	0.358	0.354	0.331	0.551	0.608	0.55	0.574	0.445	0.211	0.228	0.222	0.252	0.25	0.832	0.836	0.877	0.846	0.701
NCI-H2170	0.841	–	0.877	0.979	0.921	0.728	0.707	0.589	0.83	0.507	0.453	–	0.452	0.537	0.442	–	–	–	–	–
NCI-H727	0.611	0.731	0.567	0.522	0.787	0.616	0.89	0.528	0.557	0.487	0.874	0.88	0.82	0.441	0.861	0.759	0.774	0.578	0.585	0.716
NCI-H1355	0.805	0.623	0.799	0.832	0.975	0.586	0.517	0.513	0.506	0.388	0.35	0.334	0.356	0.374	0.38	1.16	1.1	1.23	1.03	1.11
NCI-H1975	0.684	0.628	0.741	0.613	0.758	0.777	0.769	0.704	0.681	0.296	0.394	0.349	0.365	0.645	0.332	0.372	0.348	0.345	0.322	0.218

Reference: the supplement of paper PMC10307832
